Measurements taken from patent US11771738B2 (Zoetis Services LLC, priority 2018, dated 2023).
Read-outs that look alike come from different tables or passages of the source. Marks after values point to notes of the source that are not given here.

Tests used:
Format in all cases: cell-based
D. immitis L4 larvae = test: Dirofilaria immitis, L4 Stage (DiL4) In Vitro Assay; conditions: for minimal effective concentration: Dirofilaria immitis, 72 h, read-out: DiL4 MED, Minimum Effective Dose, D. immitis L4 larvae motility, in vitro; for DiMf/DiL4: larval stage selectivity, ratio of DiMf MED to DiL4 MED
[1] = test system: third stage larvae of Haemonchus contortus; test: Haemonchus contortus, Larvae Stage 3 (HcL3) In Vitro Assay; conditions: for minimal effective concentration: Haemonchus contortus, 96 h
[2] = test system: microfilariae of Dirofilaria immitis; test: Dirofilaria immitis, Microfilaria (DiMf) In Vitro Assay; conditions: for minimal effective concentration: Dirofilaria immitis, 72 h, read-out: DiMf MED, Minimum Effective Dose, D. immitis microfilariae motility, in vitro
[3] = read-out: HcL3 MED, Haemonchus contortus third stage larvae in vitro, class mark appended to the Ex # in Table 3
[4] = read-out: HcL3 MED, Minimum Effective Dose, H. contortus third stage larvae, approximately 96 hours

| Structure (SMILES) | minimal effective concentration (D. immitis L4 larvae) | DiMf/DiL4 (D. immitis L4 larvae) | minimal effective concentration [1, 3] | minimal effective concentration [1, 4] | minimal effective concentration [2] | minimal effective concentration ([1]; read-out: HcL3 MED, approximately 96 hours incubation, multiple-resistant field isolate) | DiL4 MED (D. immitis L4 larvae; Minimum Effective Dose, D. immitis L4 larvae motility, in vitro) | HcL3 MED ([1]; Haemonchus contortus third stage larvae in vitro, class mark appended to the Ex # in Table 3) | HcL3 MED ([1]; Minimum Effective Dose, H. contortus third stage larvae, approximately 96 hours) | DiMf MED ([2]; Minimum Effective Dose, D. immitis microfilariae motility, in vitro) |
| --- | --- | --- | --- | --- | --- | --- | --- | --- | --- | --- |
| CC(C)C[C@H]1C(=O)O[C@H](Cc2ccc(Cc3ccoc3)cc2)C(=O)N(C)[C@@H](CC(C)C)C(=O)O[C@H](C)C(=O)N(C)[C@@H](CC(C)C)C(=O)O[C@H](Cc2ccc(Cc3ccoc3)cc2)C(=O)N(C)[C@@H](CC(C)C)C(=O)O[C@H](C)C(=O)N1C [Example 3-173, (3S,6R,9S,12R,15S,18R,21S,24R)-6,18-bis(4-(furan-3-ylmethyl)benzyl)-3,9,15,21-tetraisobutyl-4,10,12,16,22,24-hexamethyl-1,7,13,19-tetraoxa-4,10,16,22-tetraazacyclotetracosan-2,5,8,11,14,17,20,23-octaone] | < 0.0001 µM | >30 | 1 to 3.3 µM | 3.3 µM | 0.003 µM |  |  |  |  |  |
| CC(C)C[C@H]1C(=O)O[C@H](Cc2ccc(Cc3cccnc3N(C)C)cc2)C(=O)N(C)[C@@H](CC(C)C)C(=O)O[C@H](C)C(=O)N(C)[C@@H](CC(C)C)C(=O)O[C@H](Cc2ccc(Cc3cccnc3N(C)C)cc2)C(=O)N(C)[C@@H](CC(C)C)C(=O)O[C@H](C)C(=O)N1C [Example 3-176, (3S,6R,9S,12R,15S,18R,21S,24R)-6,18-bis(4-((2-(dimethylamino)pyridin-3-yl)methyl)benzyl)-3,9,15,21-tetraisobutyl-4,10,12,16,22,24-hexamethyl-1,7,13,19-tetraoxa-4,10,16,22-tetraazacyclotetracosan-2,5,8,11,14,17,20,23-octaone] | 0.0003 µM | 13.3 | 1 to 3.3 µM | 1.2 µM | 0.004 µM |  |  |  |  |  |
| CC(C)C[C@H]1C(=O)O[C@H](Cc2ccc(Cc3cnc(N4CCOCC4)nc3)cc2)C(=O)N(C)[C@@H](CC(C)C)C(=O)O[C@H](C)C(=O)N(C)[C@@H](CC(C)C)C(=O)O[C@H](Cc2ccc(Cc3cnc(N4CCOCC4)nc3)cc2)C(=O)N(C)[C@@H](CC(C)C)C(=O)O[C@H](C)C(=O)N1C [Example 3-178, (3S,6R,9S,12R,15S,18R,21S,24R)-3,9,15,21-tetraisobutyl-4,6,10,16,18,22-hexamethyl-12,24-bis(4-((2-morpholinopyrimidin-5-yl)methyl)benzyl)-1,7,13,19-tetraoxa-4,10,16,22-tetraazacyclotetracosan-2,5,8,11,14,17,20,23-octaone] | 0.001 µM | 1 |  | > 100 µM | 0.001 µM |  |  |  |  |  |
| COc1nccnc1Cc1ccc(C[C@H]2OC(=O)[C@H](CC(C)C)N(C)C(=O)[C@@H](C)OC(=O)[C@H](CC(C)C)N(C)C(=O)[C@@H](Cc3ccc(Cc4nccnc4OC)cc3)OC(=O)[C@H](CC(C)C)N(C)C(=O)[C@@H](C)OC(=O)[C@H](CC(C)C)N(C)C2=O)cc1 [Example 3-193, (3S,6R,9S,12R,15S,18R,21S,24R)-3,9,15,21-tetraisobutyl-6,18-bis(4-((3-methoxypyrazin-2-yl)methyl)benzyl)-4,10,12,16,22,24-hexamethyl-1,7,13,19-tetraoxa-4,10,16,22-tetraazacyclotetracosan-2,5,8,11,14,17,20,23-octaone] | 0.0004 µM | 5 | < 1 µM | 1 µM | 0.002 µM | ≤ 1 µM |  |  |  |  |
| CC(C)C[C@H]1C(=O)O[C@H](Cc2ccc(Cc3cncc(F)c3)cc2)C(=O)N(C)[C@@H](CC(C)C)C(=O)O[C@H](C)C(=O)N(C)[C@@H](CC(C)C)C(=O)O[C@H](Cc2ccc(Cc3cncc(F)c3)cc2)C(=O)N(C)[C@@H](CC(C)C)C(=O)O[C@H](C)C(=O)N1C [Example 3-194, (3S,6R,9S,12R,15S,18R,21S,24R)-6,18-bis(4-((5-fluoropyridin-3-yl)methyl)benzyl)-3,9,15,21-tetraisobutyl-4,10,12,16,22,24-hexamethyl-1,7,13,19-tetraoxa-4,10,16,22-tetraazacyclotetracosan-2,5,8,11,14,17,20,23-octaone] | 0.001 µM | 1 |  | > 100 µM | 0.001 µM |  |  |  |  |  |
| COc1ccc(C(C)c2ccc(C[C@H]3OC(=O)[C@H](CC(C)C)N(C)C(=O)[C@@H](C)OC(=O)[C@H](CC(C)C)N(C)C(=O)[C@@H](Cc4ccc(C(C)c5ccc(OC)nc5)cc4)OC(=O)[C@H](CC(C)C)N(C)C(=O)[C@@H](C)OC(=O)[C@H](CC(C)C)N(C)C3=O)cc2)cn1 (stereo partly drawn) [Example 3-207, (3S,6R,9S,12R,15S,18R,21S,24R)-3,9,15,21-tetraisobutyl-6,18-bis(4-(1-(6-methoxypyridin-3-yl)ethyl)benzyl)-4,10,12,16,22,24-hexamethyl-1,7,13,19-tetraoxa-4,10,16,22-tetraazacyclotetracosan-2,5,8,11,14,17,20,23-octaone] | 0.001 µM | 50 |  | > 100 µM | 0.05 µM |  |  |  |  |  |
| COc1nc(C)c(Cc2ccc(C[C@H]3OC(=O)[C@H](CC(C)C)N(C)C(=O)[C@@H](C)OC(=O)[C@H](CC(C)C)N(C)C(=O)[C@@H](Cc4ccc(Cc5sc(OC)nc5C)cc4)OC(=O)[C@H](CC(C)C)N(C)C(=O)[C@@H](C)OC(=O)[C@H](CC(C)C)N(C)C3=O)cc2)s1 [Example 3-209, (3S,6R,9S,12R,15S,18R,21S,24R)-3,9,15,21-tetraisobutyl-6,18-bis(4-((2-methoxy-4-methylthiazol-5-yl)methyl)benzyl)-4,10,12,16,22,24-hexamethyl-1,7,13,19-tetraoxa-4,10,16,22-tetraazacyclotetracosan-2,5,8,11,14,17,20,23-octaone] | 0.0005 µM | 20 |  | > 100 µM | 0.01 µM |  |  |  |  |  |
| COc1cccnc1Cc1ccc(C[C@H]2OC(=O)[C@H](CC(C)C)N(C)C(=O)[C@@H](C)OC(=O)[C@H](CC(C)C)N(C)C(=O)[C@@H](Cc3ccc(Cc4ncccc4OC)cc3)OC(=O)[C@H](CC(C)C)N(C)C(=O)[C@@H](C)OC(=O)[C@H](CC(C)C)N(C)C2=O)cc1 [Example 3-215] |  | >3.5 |  |  |  |  | <0.2 nM | 3-215* (Examples with an asterisk (*) have HcL3 MED values≤1 μM) | 1 µM | 0.7 nM |
| COc1ccnc(Cc2ccc(C[C@H]3OC(=O)[C@H](CC(C)C)N(C)C(=O)[C@@H](C)OC(=O)[C@H](CC(C)C)N(C)C(=O)[C@@H](Cc4ccc(Cc5nccc(OC)n5)cc4)OC(=O)[C@H](CC(C)C)N(C)C(=O)[C@@H](C)OC(=O)[C@H](CC(C)C)N(C)C3=O)cc2)n1 [Example 3-217, (3S,6R,9S,12R,15S,18R,21S,24R)-3,9,15,21-tetraisobutyl-6,18-bis(4-((4-methoxypyrimidin-2-yl)methyl)benzyl)-4,10,12,16,22,24-hexamethyl-1,7,13,19-tetraoxa-4,10,16,22-tetraazacyclotetracosan-2,5,8,11,14,17,20,23-octaone] | < 0.0007 µM | >4.3 | 1 to 3.3 µM | 3.3 µM | 0.003 µM |  |  |  |  |  |
